Data published in PubChem BioAssay (NCI).
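Growth conditions: 96-well plates. Treatment: test compound, 48 hours, 5 concentrations. Analysis: linear interpolation between bracketing concentrations; unreached endpoints set to highest concentration. TGI: concentration producing complete growth inhibition.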

Key:
Assay in all cases: NCI tumour cell line growth inhibition, 48 h
EKVX NSCLC = system: EKVX NSCLC
K-562 leukemia = system: K-562 leukemia
SK-OV-3 ovarian = system: SK-OV-3 ovarian
HL-60(TB) leukemia = system: HL-60(TB) leukemia
KM12 colon = system: KM12 colon
SF-539 CNS = system: SF-539 CNS
NCI-H460 lung = system: NCI-H460 lung
HCT-15 colon = system: HCT-15 colon
HCC-2998 colon = system: HCC-2998 colon
SN12C renal = system: SN12C renal
HT29 colon = system: HT29 colon
HOP-62 NSCLC = system: HOP-62 NSCLC
OVCAR-8 ovarian = system: OVCAR-8 ovarian
HCT-116 colon = system: HCT-116 colon
UO-31 renal = system: UO-31 renal
UACC-257 melanoma = system: UACC-257 melanoma
RPMI-8226 leukemia = system: RPMI-8226 leukemia
SW-620 colon = system: SW-620 colon
M14 melanoma = system: M14 melanoma
SR leukemia = system: SR leukemia

Row | SMILES | TGI (EKVX NSCLC) [µM] | TGI (K-562 leukemia) [µM] | TGI (SK-OV-3 ovarian) [µM] | TGI (HL-60(TB) leukemia) [µM] | TGI (KM12 colon) [µM] | TGI (SF-539 CNS) [µM] | TGI (NCI-H460 lung) [µM] | TGI (HCT-15 colon) [µM] | TGI (HCC-2998 colon) [µM] | TGI (SN12C renal) [µM] | TGI (HT29 colon) [µM] | TGI (HOP-62 NSCLC) [µM] | TGI (OVCAR-8 ovarian) [µM] | TGI (HCT-116 colon) [µM] | TGI (UO-31 renal) [µM] | TGI (UACC-257 melanoma) [µM] | TGI (RPMI-8226 leukemia) [µM] | TGI (SW-620 colon) [µM] | TGI (M14 melanoma) [µM] | TGI (SR leukemia) [µM]
1 | O=C(O)C1Cc2c([nH]c3ccccc23)C=N1 (stereo unspecified) | > 100 | > 100 | > 100 | > 100 | > 31.7 | > 100 | > 100 | > 100 | > 100 | > 100 | > 100 | > 100 | > 100 | > 100 | > 100 | > 100 | > 100 | > 100 |  | 
2 | COC1CC(OC2CCC3(C)C(CCC45CCC(C6=CC(=O)OC6)C(C)(CCC43)C5=O)C2)OC(C)C1O (stereo unspecified) | > 100 | > 100 | > 100 | 43.7 | > 100 | 63.3 | 32.4 | 52.2 | 44.4 | 61.9 | > 100 | 51.3 | > 100 | > 100 | 35.8 | > 100 |  | > 100 | > 100 | 71.8
3 | NNc1nc2ccccc2s1 | > 100 | > 100 |  | > 100 | > 100 | > 100 | > 100 | > 100 | > 100 | > 100 | > 100 |  | > 100 | > 100 | > 100 | > 100 | > 100 | > 100 | > 100 | > 100
4 | O=C1C(=O)c2ccccc2C(O)=C1CN(CCCl)CCCl | > 100 | > 100 | > 100 | > 100 | > 100 | > 100 | > 100 | > 100 | > 100 | > 100 | > 100 | > 100 | > 100 | > 100 | > 100 |  |  | > 100 | > 100 | > 100
5 | CC12CCC(C(=O)N3CC=CCC3)(OC1=O)C2(C)C (stereo unspecified) | > 100 | > 100 | > 100 | > 100 | > 100 | > 100 | > 100 | > 100 | > 100 | > 100 | > 100 | > 100 | > 100 | > 100 | > 100 | > 100 | > 100 | > 100 |  | 
